From patent US9278071B2, “Organic compound nano-powder, method for producing the same and suspension” (Activus Pharma Co., Ltd., priority 2012, dated 2016) come the findings set out here.

Data set [1] can be described thus: Particle size of the granular carbohydrate compounds used. Format: physicochemical. To be noted: granular carbohydrate compound as used. The text has this: The term “Dav” means an average particle diameter (Dav). In the table, the term “D10” means the particle diameter (D10 value) of the particle at the position of 10% when counted from the smallest size zero (minimum) to 100% (maximum) of the particle diameter in a particle diameter distribution. The term “D50” means a certain particle diameter (D50 value) when amount of a larger side becomes equal to amount of a smaller side of the particle diameters divided into two a powder from the certain particle diameter. The term “D90” means the particle diameter (D90 value) of the particle at the position of 90% when counted from the smallest size zero (minimum) to 100% (maximum) of the particle diameter in the particle diameter distribution. The same definitions shall apply to following tables.

Data set [2] is described as follows: Particle diameter distribution by dynamic light scattering photon correlation method (Delsa Nano). The format is physicochemical. To be noted: starting organic compound powder before mixing/milling. The text has this:
The term “average particle diameter” used in present specification means a mathematical average diameter (here, defined as the Dav value) in the particle diameter distribution as measured by a dynamic light scattering photon correlation method. The term “50%-diameter” (defined as median diameter or the D50 value) means a certain particle diameter when amount of a larger side becomes equal to amount of a smaller side of the particle diameters divided into two a powder from the certain particle diameter. The term “90%-diameter” (D90 value) means the particle diameter of the particle at the position of 90% when counted from the smallest size zero (minimum) to 100% (maximum) of the particle diameter in the particle diameter distribution as measured by the above-mentioned measurement method. The term “10%-diameter” (D10 value) means the particle diameter of the particle at the position of 10% when counted from the smallest size zero (minimum) to 100% (maximum) of the particle diameter in the particle diameter distribution as measured by the above-mentioned measurement method. […]

For `O=C[C@H](O)[C@@H](O)[C@H](O[C@@H]1O[C@H](CO)[C@@H](O)[C@H](O)[C@H]1O)[C@H](O)CO` [Cellobiose, cellobiose], in data set [1], the “Particle Size D10” value was 7 μm, the “Particle Size D50” value is on record as 38 μm, the “Particle Size D90” value is 76 μm and the “Particle Size Dav” value is given as 41 μm.

In the case of `OC[C@@H](O)[C@@H](O)CO` [Erythritol, erythritol], in data set [1], the “Particle Size D10” value came out at 63 μm, the “Particle Size D50” value worked out at 138 μm, the “Particle Size D90” value is on record as 237 μm and the “Particle Size Dav” value was 147 μm.

Turning to `O=C(CO)[C@@H](O)[C@H](O)[C@H](O)CO` [Fructose, fructose], in data set [1], the “Particle Size D10” value worked out at 158 μm, the “Particle Size D50” value is 311 μm, the “Particle Size D90” value is on record as 566 μm and the “Particle Size Dav” value was determined as 339 μm.

Regarding `O[C@H]1[C@H](O)[C@@H](O)[C@H](O)[C@@H](O)[C@H]1O` [Inositol, inositol], in data set [1], the “Particle Size D10” value is 116 μm, the “Particle Size D50” value was found to be 247 μm, the “Particle Size D90” value is 496 μm and the “Particle Size Dav” value is 280 μm.

For the molecule `O.OC[C@H]1O[C@@H](O[C@H]2[C@H](O)[C@@H](O)C(O)O[C@@H]2CO)[C@H](O)[C@@H](O)[C@H]1O` (stereo partly shown) [Lactose monohydrate, lactose monohydrate], in data set [1], the “Particle Size D10” value came to 3 μm, the “Particle Size D50” value turned out to be 20 μm and the “Particle Size Dav” value was found to be 45 μm.

Consider `OC[C@@H](O)[C@@H](O[C@H]1O[C@H](CO)[C@@H](O)[C@H](O)[C@H]1O)[C@H](O)[C@@H](O)CO` [Maltitol, maltitol], for which, in data set [1], the “Particle Size D10” value is given as 7 μm, the “Particle Size D50” value is listed as 30 μm, the “Particle Size D90” value was found to be 64 μm and the “Particle Size Dav” value came out at 33 μm.

Regarding `OC[C@@H](O)[C@@H](O)[C@H](O)[C@H](O)CO` [Mannitol, D-(−)-mannitol], in data set [1], the “Particle Size D10” value turned out to be 24 μm, the “Particle Size D50” value was 66 μm, the “Particle Size D90” value amounted to 144 μm and the “Particle Size Dav” value amounted to 79 μm.

Regarding `OC[C@@H](O)[C@@H](O)[C@H](O)[C@@H](O)CO` [Sorbitol, sorbitol], in data set [1], the “Particle Size D10” value is 75 μm, the “Particle Size D50” value worked out at 154 μm, the “Particle Size D90” value is 249 μm and the “Particle Size Dav” value worked out at 159 μm.

As for `OC[C@H]1O[C@H](O[C@H]2O[C@H](CO)[C@@H](O)[C@H](O)[C@H]2O)[C@H](O)[C@@H](O)[C@@H]1O` [Trehalose, trehalose], in data set [1], the “Particle Size D10” value is 7 μm, the “Particle Size D50” value amounted to 20 μm, the “Particle Size D90” value turned out to be 50 μm and the “Particle Size Dav” value is reported as 25 μm.

On to `OC[C@@H](O)[C@H](O)[C@@H](O)CO` [Xylitol, xylitol], for which, in data set [1], the “Particle Size D10” value turned out to be 383 μm, the “Particle Size D50” value stood at 615 μm, the “Particle Size D90” value is 912 μm and the “Particle Size Dav” value was found to be 631 μm.

For `CC[C@H]1OC(=O)[C@H](C)[C@@H](O[C@H]2C[C@@](C)(OC)[C@@H](O)[C@H](C)O2)[C@H](C)[C@@H](O[C@@H]2O[C@H](C)C[C@H](N(C)C)[C@H]2O)[C@](C)(OC)C[C@@H](C)C(=O)[C@H](C)[C@@H](O)[C@]1(C)O` [clarithromycin powder, clarithromycin], in data set [2], the “Particle diameter distribution, D10, before milling” value (“Particle diameter distribution, D10” below) came to 2277 nm; the “Particle diameter distribution, D50, before milling” value (shortened to “Particle diameter distribution, D50”) came to 6872 nm; the “Particle diameter distribution, D90, before milling” value (“Particle diameter distribution, D90” for short) was found to be 22850 nm; the “Particle diameter distribution, Dav (average particle diameter), before milling” value (“Particle diameter distribution, Dav” below) is reported as 10160 nm.

Take `CC(=O)[C@@]1(O)CC[C@H]2[C@@H]3C[C@H](C)C4=CC(=O)C=C[C@]4(C)[C@@]3(F)[C@@H](O)C[C@@]21C` [fluorometholone powder, fluorometholone]: in data set [2], the “Particle diameter distribution, D10” value came out at 1389 nm; the “Particle diameter distribution, D50” value was determined as 2636 nm; the “Particle diameter distribution, D90” value came out at 5709 nm; the “Particle diameter distribution, Dav” value is on record as 3148 nm.

With `COc1cc(/C=C/C(=O)CC(=O)/C=C/c2ccc(O)c(OC)c2)ccc1O` [synthetic curcumin powder, curcumin], in data set [2], the “Particle diameter distribution, D10” value is reported as 4422 nm; the “Particle diameter distribution, D50” value was 15070 nm; the “Particle diameter distribution, D90” value is on record as 33850 nm; the “Particle diameter distribution, Dav” value is given as 17270 nm.

Consider dextrin, for which, in data set [1], the “Particle Size D10” value was found to be 16 μm, the “Particle Size D50” value is listed as 38 μm, the “Particle Size D90” value is 63 μm and the “Particle Size Dav” value was determined as 38 μm.
